How the values were obtained:
foxtail, giant [1] = assay: Test A postemergence; type: in vivo, Setaria faberii
Procedure, shortened: (§1)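 Ratings express plant response from 0 (no effect) to 100 (complete control), judged visually against untreated controls after approximately 10 days in the greenhouse. Preemergence applications were made as directed soil sprays onto seeded loam–sand mix, and postemergence applications onto 2–10 cm plants at one- to two-leaf stage.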

wheat [2] = assay: Test A postemergence; type: in vivo, Triticum aestivum
Procedure, shortened: as §1

corn [3] = assay: Test A postemergence; type: in vivo, Zea mays
Procedure, shortened: as §1

galium [4] = assay: Test C preemergence; type: in vivo, Galium aparine; details: preemergence; for Plant response rating, Galium: 125 g ai/ha, scale 0 to 100, 0 = no effect, 100 = complete control
Procedure, shortened: (§2)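 Visual control ratings on a 0–100 scale (100 = complete control) made against untreated controls after 13 to 15 days in greenhouse. Compounds applied in surfactant-containing solvent mixture, either preemergence to loam/sand-sown seeds or postemergence to 1- to 4-leaf plants (2–18 cm) in peat medium.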

corn [5] = assay: Test C preemergence; type: in vivo, Zea mays; details: preemergence; for Plant response rating, Corn: 125 g ai/ha, scale 0 to 100, 0 = no effect, 100 = complete control
Procedure, shortened: as §2

foxtail, giant [6] = assay: Test C preemergence; type: in vivo, Setaria faberii; details: preemergence; for Plant response rating, Foxtail, Giant: 125 g ai/ha, scale 0 to 100, 0 = no effect, 100 = complete control
Procedure, shortened: as §2

soybean = assay: Test C preemergence; type: in vivo, Glycine max; details: preemergence; for Plant response rating, Soybean: 125 g ai/ha, scale 0 to 100, 0 = no effect, 100 = complete control
Procedure, shortened: as §2

waterhemp = assay: Test C preemergence; type: in vivo, Amaranthus rudis; details: preemergence; for Plant response rating, Waterhemp: 125 g ai/ha, scale 0 to 100, 0 = no effect, 100 = complete control
Procedure, shortened: as §2

wheat [7] = assay: Test C postemergence; type: in vivo, Triticum aestivum; details: for Wheat plant response rating / Plant response rating, Wheat: postemergence; for Wheat plant response rating: scale 0 to 100
Procedure, shortened: as §2

galium [8] = assay: Test C postemergence; type: in vivo, Galium aparine; details: for Plant response rating (scale of 0 to 100 where 0 is no effect and 100 is complete control), Galium: Postemergence, 31 g ai/ha, visually evaluated after 13 to 15 days; for Galium plant response rating / Plant response rating, Galium: postemergence; for Galium plant response rating: 62 g ai/ha, scale 0 to 100
Procedure, shortened: as §2

foxtail, giant [9] = assay: Test C postemergence; type: in vivo, Setaria faberii; details: for Plant response rating (scale of 0 to 100 where 0 is no effect and 100 is complete control), Foxtail, Giant: Postemergence, 31 g ai/ha, visually evaluated after 13 to 15 days; for Foxtail, Giant plant response rating / Plant response rating, Foxtail, Giant: postemergence; for Foxtail, Giant plant response rating: 62 g ai/ha, scale 0 to 100
Procedure, shortened: as §2

morningglory = assay: Test C postemergence; type: in vivo, Ipomoea coccinea; details: for Plant response rating (scale of 0 to 100 where 0 is no effect and 100 is complete control), Morningglory: Postemergence, 31 g ai/ha, visually evaluated after 13 to 15 days; for Morningglory plant response rating / Plant response rating, Morningglory: postemergence; for Morningglory plant response rating: 62 g ai/ha, scale 0 to 100
Procedure, shortened: as §2

barnyardgrass = assay: Test C postemergence; type: in vivo, Echinochloa crus-galli; details: for Plant response rating (scale of 0 to 100 where 0 is no effect and 100 is complete control), Barnyardgrass: Postemergence, 31 g ai/ha, visually evaluated after 13 to 15 days; for Barnyardgrass plant response rating / Plant response rating, Barnyardgrass: postemergence; for Barnyardgrass plant response rating: 62 g ai/ha, scale 0 to 100
Procedure, shortened: as §2

kochia = assay: Test C postemergence; type: in vivo, Kochia scoparia; details: for Plant response rating (scale of 0 to 100 where 0 is no effect and 100 is complete control), Kochia: Postemergence, 31 g ai/ha, visually evaluated after 13 to 15 days; for Kochia plant response rating / Plant response rating, Kochia: postemergence; for Kochia plant response rating: 62 g ai/ha, scale 0 to 100
Procedure, shortened: as §2

velvetleaf = assay: Test C postemergence; type: in vivo, Abutilon theophrasti; details: for Velvetleaf plant response rating / Plant response rating, Velvetleaf: postemergence; for Velvetleaf plant response rating: scale 0 to 100
Procedure, shortened: as §2

[10] = Postemergence, 500 g ai/ha, 0 to 100 scale (0 no effect, 100 complete control)
[11] = postemergence, 125 g ai/ha, about 10 days, visual rating on 0 to 100 scale (0 no effect, 100 complete control)
[12] = 31 g ai/ha, visual rating, scale 0 to 100 (0 no effect, 100 complete control), 13 to 15 days
[13] = 62 g ai/ha, scale 0 to 100 (0 no effect, 100 complete control), 13 to 15 days
[14] = 250 g ai/ha, scale 0 to 100, 0 is no effect, 100 is complete control
[15] = Postemergence, 31 g ai/ha, visually evaluated after 13 to 15 days
[16] = 250 g ai/ha, scale 0 to 100 (0 no effect, 100 complete control)
[17] = 125 g ai/ha, scale 0 to 100, 0 no effect, 100 complete control

In the case of CCCNC(=O)c1cc(OCC)n(Cc2ccnc(OC(F)F)c2)n1 [Compound 136], the “Foxtail, Giant plant response rating” value (foxtail, giant [1]; [10]) is reported as 100, the “Foxtail, Giant plant response rating” value (foxtail, giant [1]; [11]) is reported as 90 and the “Wheat plant response rating” value (wheat [2]; [10]) is reported as 90. The “Wheat plant response rating” value (wheat [2]; [11]) was 60, the “Corn plant response rating” value (corn [3]; [10]) was 100 and the “Corn plant response rating” value (corn [3]; [11]) was 60. The “Galium plant response rating” value (galium [4]; [12]) was 85, the “Galium plant response rating” value (galium [4]; [13]) was 100 and the “Plant response rating, Galium” value (galium [4]; 13 to 15 days) was 100. For the same compound, the “Galium plant response rating” value (galium [4]; [14]) was 100, the “Corn plant response rating” value (corn [5]; [12]) was 35 and the “Corn plant response rating” value (corn [5]; [13]) was 70. For the same compound, the “Plant response rating, Corn” value (corn [5]; 13 to 15 days) was 60, the “Corn plant response rating” value (corn [5]; [14]) was 85 and the “Foxtail, Giant plant response rating” value (foxtail, giant [6]; [12]) was 100. The “Foxtail, Giant plant response rating” value (foxtail, giant [6]; [13]) was 100, the “Plant response rating, Foxtail, Giant” value (foxtail, giant [6]; 13 to 15 days) was 100 and the “Foxtail, Giant plant response rating” value (foxtail, giant [6]; [14]) was 100. The “Soybean plant response rating” value (soybean; [12]) was 45, the “Soybean plant response rating” value (soybean; [13]) was 75 and the “Plant response rating, Soybean” value (soybean; 13 to 15 days) was 95. The “Soybean plant response rating” value (soybean; [14]) was 100, the “Waterhemp plant response rating” value (waterhemp; [12]) was 85 and the “Waterhemp plant response rating” value (waterhemp; [13]) was 100. The “Plant response rating, Waterhemp” value (waterhemp; 13 to 15 days) was 100, the “Waterhemp plant response rating” value (waterhemp; [14]) was 100 and the “Plant response rating (scale of 0 to 100 where 0 is no effect and 100 is complete control), Wheat” value (wheat [7]; [15]) was 5. The “Wheat plant response rating” value (wheat [7]; 62 g ai/ha) was 5, the “Plant response rating, Wheat” value (wheat [7]; [16]) was 15 and the “Plant response rating, Wheat” value (wheat [7]; [17]) was 10. The “Plant response rating (scale of 0 to 100 where 0 is no effect and 100 is complete control), Galium” value (galium [8]) was 60, the “Galium plant response rating” value (galium [8]) was 60 and the “Plant response rating, Galium” value (galium [8]; [16]) was 80. For the same compound, the “Plant response rating, Galium” value (galium [8]; [17]) was 60, the “Plant response rating (scale of 0 to 100 where 0 is no effect and 100 is complete control), Foxtail, Giant” value (foxtail, giant [9]) was 30 and the “Foxtail, Giant plant response rating” value (foxtail, giant [9]) was 30. The “Plant response rating, Foxtail, Giant” value (foxtail, giant [9]; [16]) was 70, the “Plant response rating, Foxtail, Giant” value (foxtail, giant [9]; [17]) was 40 and the “Plant response rating (scale of 0 to 100 where 0 is no effect and 100 is complete control), Morningglory” value (morningglory) was 90. The “Morningglory plant response rating” value (morningglory) was 98, the “Plant response rating, Morningglory” value (morningglory; [16]) was 100 and the “Plant response rating, Morningglory” value (morningglory; [17]) was 95. For the same compound, the “Plant response rating (scale of 0 to 100 where 0 is no effect and 100 is complete control), Barnyardgrass” value (barnyardgrass) was 5, the “Barnyardgrass plant response rating” value (barnyardgrass) was 5 and the “Plant response rating, Barnyardgrass” value (barnyardgrass; [16]) was 45. The “Plant response rating, Barnyardgrass” value (barnyardgrass; [17]) was 5, the “Plant response rating (scale of 0 to 100 where 0 is no effect and 100 is complete control), Kochia” value (kochia) was 90 and the “Kochia plant response rating” value (kochia) was 90. For the same compound, the “Plant response rating, Kochia” value (kochia; [16]) was 90, the “Plant response rating, Kochia” value (kochia; [17]) was 90 and the “Plant response rating (scale of 0 to 100 where 0 is no effect and 100 is complete control), Velvetleaf” value (velvetleaf; [15]) was 30. For the same compound, the “Velvetleaf plant response rating” value (velvetleaf; 62 g ai/ha) was 55, the “Plant response rating, Velvetleaf” value (velvetleaf; [16]) was 85 and the “Plant response rating, Velvetleaf” value (velvetleaf; [17]) was 60.
With CCCc1cc(C(=O)NC2CC2)nn1Cc1ccnc(OC(F)F)c1 [Compound 205] the “Foxtail, Giant plant response rating” value (foxtail, giant [1]; [10]) was 90, the “Foxtail, Giant plant response rating” value (foxtail, giant [1]; [11]) was 90 and the “Wheat plant response rating” value (wheat [2]; Postemergence, 125 g ai/ha, 0 to 100 scale, 0 no effect, 100 complete control) was 70. For the same compound, the “Wheat plant response rating” value (wheat [2]; [10]) was 90, the “Corn plant response rating” value (corn [3]; [10]) was 100 and the “Corn plant response rating” value (corn [3]; [11]) was 70. For the same compound, the “Galium plant response rating” value (galium [4]; [12]) was 100, the “Galium plant response rating” value (galium [4]; [13]) was 90 and the “Plant response rating, Galium” value (galium [4]; 13 to 15 days) was 95. For the same compound, the “Galium plant response rating” value (galium [4]; [14]) was 100, the “Corn plant response rating” value (corn [5]; [12]) was 70 and the “Corn plant response rating” value (corn [5]; [13]) was 70. For the same compound, the “Plant response rating, Corn” value (corn [5]; 13 to 15 days) was 80, the “Corn plant response rating” value (corn [5]; [14]) was 98 and the “Foxtail, Giant plant response rating” value (foxtail, giant [6]; [12]) was 100. The “Foxtail, Giant plant response rating” value (foxtail, giant [6]; [13]) was 100, the “Plant response rating, Foxtail, Giant” value (foxtail, giant [6]; 13 to 15 days) was 100 and the “Foxtail, Giant plant response rating” value (foxtail, giant [6]; [14]) was 100. The “Soybean plant response rating” value (soybean; [12]) was 80, the “Soybean plant response rating” value (soybean; [13]) was 85 and the “Plant response rating, Soybean” value (soybean; 13 to 15 days) was 100. For the same compound, the “Soybean plant response rating” value (soybean; [14]) was 100, the “Waterhemp plant response rating” value (waterhemp; [12]) was 100 and the “Waterhemp plant response rating” value (waterhemp; [13]) was 100. For the same compound, the “Plant response rating, Waterhemp” value (waterhemp; 13 to 15 days) was 100, the “Waterhemp plant response rating” value (waterhemp; [14]) was 100 and the “Plant response rating, Wheat” value (wheat [7]; [16]) was 5. The “Wheat plant response rating” value (wheat [7]) was 5, the “Plant response rating (scale of 0 to 100 where 0 is no effect and 100 is complete control), Galium” value (galium [8]) was 65 and the “Galium plant response rating” value (galium [8]) was 80. The “Plant response rating, Galium” value (galium [8]; [16]) was 80, the “Plant response rating, Galium” value (galium [8]; [17]) was 80 and the “Plant response rating (scale of 0 to 100 where 0 is no effect and 100 is complete control), Foxtail, Giant” value (foxtail, giant [9]) was 20. The “Foxtail, Giant plant response rating” value (foxtail, giant [9]) was 35, the “Plant response rating, Foxtail, Giant” value (foxtail, giant [9]; [16]) was 65 and the “Plant response rating, Foxtail, Giant” value (foxtail, giant [9]; [17]) was 70. For the same compound, the “Plant response rating (scale of 0 to 100 where 0 is no effect and 100 is complete control), Morningglory” value (morningglory) was 65, the “Morningglory plant response rating” value (morningglory) was 70 and the “Plant response rating, Morningglory” value (morningglory; [16]) was 95. The “Plant response rating, Morningglory” value (morningglory; [17]) was 80, the “Plant response rating (scale of 0 to 100 where 0 is no effect and 100 is complete control), Barnyardgrass” value (barnyardgrass) was 10 and the “Barnyardgrass plant response rating” value (barnyardgrass) was 10. The “Plant response rating, Barnyardgrass” value (barnyardgrass; [16]) was 50, the “Plant response rating, Barnyardgrass” value (barnyardgrass; [17]) was 15 and the “Plant response rating (scale of 0 to 100 where 0 is no effect and 100 is complete control), Kochia” value (kochia) was 85. The “Kochia plant response rating” value (kochia) was 90, the “Plant response rating, Kochia” value (kochia; [16]) was 95 and the “Plant response rating, Kochia” value (kochia; [17]) was 95. The “Plant response rating, Velvetleaf” value (velvetleaf; [16]) was 40 and the “Velvetleaf plant response rating” value (velvetleaf) was 40.

Source: patent US20150105252A1, “SUBSTITUTED PYRAZOLES AS HERBICIDES” (E I DU PONT DE NEMOURS AND COMPANY, priority 2013, published 2015)
